Test: Inhibition of Cyclin-dependent kinase 1, CDK1-related human bladder carcinoma (T24) cell proliferation

With `CCn1cnc2c(Nc3cccc(Cl)c3)nc(N[C@H]3CC[C@@H](O)CC3)nc21` [4-[6-(3-Chloro-phenylamino)-9-ethyl-9H-purin-2-ylamino]-cyclohexanol] as the compound, how does the IC50 read?
The IC50 was 830 nM.
